From patent US12077503B2, “Substituted cyclic amides and their use as herbicides” (FMC CORPORATION, priority 2015, dated 2024)

Columns and labels:
Format in all cases: in vivo
[1] = test system: Kochia (Kochia scoparia); test: Test A preemergence; conditions: for Plant response rating, Kochia: 125 g ai/ha; for Kochia plant response rating (0 to 100 scale, 0 is no effect, 100 is complete control): 500 g ai/ha, visual injury approx. 10 d
Method in brief: (§1)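 Seeded soil received test chemicals as a preemergence directed spray, and seedlings at one to two leaves, 2–10 cm tall, received them postemergence, in a non-phytotoxic, surfactant-containing solvent mixture. Pots were held in a greenhouse for approximately 10 d, then rated for injury from 0, no effect, to 100, complete control.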

[2] = test system: barnyardgrass (Echinochloa crus-galli); test: Test A preemergence; conditions: for Plant response rating, Barnyardgrass: 125 g ai/ha; for Barnyardgrass plant response rating (0 to 100 scale, 0 is no effect, 100 is complete control): 500 g ai/ha, visual injury approx. 10 d
Method in brief: as §1

[3] = test system: giant foxtail (Setaria faberii); test: Test A preemergence; conditions: for Plant response rating, Foxtail, Giant: 125 g ai/ha; for Foxtail, Giant plant response rating (0 to 100 scale, 0 is no effect, 100 is complete control): 500 g ai/ha, visual injury approx. 10 d
Method in brief: as §1

[4] = test system: pigweed (Amaranthus retroflexus); test: Test A preemergence; conditions: Preemergence; for Plant response rating, Pigweed: 125 g ai/ha, visual injury after approximately 10 d, 0 to 100 scale where 0 is no effect and 100 is complete control; for Pigweed plant response rating (0 to 100 scale, 0 is no effect, 100 is complete control): 500 g ai/ha, visual injury approx. 10 d
[5] = test system: ragweed (common ragweed, Ambrosia elatior); test: Test A preemergence; conditions: Preemergence; for Plant response rating, Ragweed: 125 g ai/ha, visual injury after approximately 10 d, 0 to 100 scale where 0 is no effect and 100 is complete control; for Ragweed plant response rating (0 to 100 scale, 0 is no effect, 100 is complete control): 500 g ai/ha, visual injury approx. 10 d
Method in brief: as §1

[6] = test system: ryegrass, Italian (Italian ryegrass, Lolium multiflorum); test: Test A preemergence; conditions: Preemergence; for Plant response rating, Ryegrass, Italian: 125 g ai/ha, visual injury after approximately 10 d, 0 to 100 scale where 0 is no effect and 100 is complete control; for Ryegrass, Italian plant response rating (0 to 100 scale, 0 is no effect, 100 is complete control): 500 g ai/ha, visual injury approx. 10 d
Method in brief: as §1

[7] = test system: Galium (catchweed bedstraw, Galium aparine); test: Test A postemergence; conditions: for Galium plant response rating: 125 g ai/ha, postemergence, visual injury rating on 0 to 100 scale (0 no effect, 100 complete control), approx. 10 d; for Plant response rating, Galium: Postemergence, 500 g ai/ha, 0 to 100 scale where 0 is no effect and 100 is complete control
Method in brief: as §1

[8] = test system: Kochia (Kochia scoparia); test: Test A postemergence; conditions: for Kochia plant response rating: 125 g ai/ha, postemergence, visual injury rating on 0 to 100 scale (0 no effect, 100 complete control), approx. 10 d; for Plant response rating, Kochia: Postemergence, 500 g ai/ha, 0 to 100 scale where 0 is no effect and 100 is complete control
Method in brief: as §1

[9] = test system: barnyardgrass (Echinochloa crus-galli); test: Test A postemergence; conditions: for Barnyardgrass plant response rating: 125 g ai/ha, visual injury rating on 0 to 100 scale (0 no effect, 100 complete control), approx. 10 d; for Plant response rating, Barnyardgrass: 500 g ai/ha
Method in brief: as §1

[10] = test system: blackgrass (Alopecurus myosuroides); test: Test A postemergence; conditions: for Blackgrass plant response rating: 125 g ai/ha, visual injury rating on 0 to 100 scale (0 no effect, 100 complete control), approx. 10 d; for Plant response rating, Blackgrass: 500 g ai/ha
Method in brief: as §1

[11] = test system: corn (Zea mays); test: Test A postemergence; conditions: for Corn plant response rating: 125 g ai/ha, visual injury rating on 0 to 100 scale (0 no effect, 100 complete control), approx. 10 d; for Plant response rating, Corn: 500 g ai/ha
Method in brief: as §1

[12] = test system: giant foxtail (Setaria faberii); test: Test A postemergence; conditions: for Foxtail, Giant plant response rating: 125 g ai/ha, postemergence, visual injury rating on 0 to 100 scale (0 no effect, 100 complete control), approx. 10 d; for Plant response rating, Foxtail, Giant: Postemergence, 500 g ai/ha, 0 to 100 scale where 0 is no effect and 100 is complete control
Method in brief: as §1

[13] = test system: pigweed (Amaranthus retroflexus); test: Test A postemergence; conditions: for Pigweed plant response rating: 125 g ai/ha, postemergence, visual injury rating on 0 to 100 scale (0 no effect, 100 complete control), approx. 10 d; for Plant response rating, Pigweed: Postemergence, 500 g ai/ha, 0 to 100 scale where 0 is no effect and 100 is complete control
Method in brief: as §1

[14] = test system: ragweed (common ragweed, Ambrosia elatior); test: Test A postemergence; conditions: for Ragweed plant response rating: 125 g ai/ha, postemergence, visual injury rating on 0 to 100 scale (0 no effect, 100 complete control), approx. 10 d; for Plant response rating, Ragweed: Postemergence, 500 g ai/ha, 0 to 100 scale where 0 is no effect and 100 is complete control
Method in brief: as §1

[15] = test system: ryegrass, Italian (Italian ryegrass, Lolium multiflorum); test: Test A postemergence; conditions: for Ryegrass, Italian plant response rating: 125 g ai/ha, postemergence, visual injury rating on 0 to 100 scale (0 no effect, 100 complete control), approx. 10 d; for Plant response rating, Ryegrass, Italian: Postemergence, 500 g ai/ha, 0 to 100 scale where 0 is no effect and 100 is complete control
Method in brief: as §1

[16] = test system: wheat (Triticum aestivum); test: Test A postemergence; conditions: for Wheat plant response rating: 125 g ai/ha, postemergence, visual injury rating on 0 to 100 scale (0 no effect, 100 complete control), approx. 10 d; for Plant response rating, Wheat: Postemergence, 500 g ai/ha, 0 to 100 scale where 0 is no effect and 100 is complete control
Method in brief: as §1

[17] = test system: barnyardgrass (Echinochloa crus-galli); test: Test B flooded paddy test; conditions: Flood, 250 g ai/ha; 0 to 100 scale where 0 is no effect and 100 is complete control; 13 to 15 d
Method in brief: (§2)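 Flooding to 3 cm over soil accompanied treatment, which consisted of adding compound to the standing water around 2-leaf plants; depth was then maintained. Visual assessment versus controls followed at 13 to 15 d (scale 0–100, 0 meaning no effect).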

[18] = test system: ducksalad (Heteranthera limosa); test: Test B flooded paddy test; conditions: Flood, 250 g ai/ha; 0 to 100 scale where 0 is no effect and 100 is complete control; 13 to 15 d
Method in brief: as §2

[19] = test system: rice (Oryra sativa); test: Test B flooded paddy test; conditions: Flood, 250 g ai/ha; 0 to 100 scale where 0 is no effect and 100 is complete control; 13 to 15 d
Method in brief: as §2

[20] = test system: sedge, umbrella (small-flower umbrella sedge, Cyperus difformis); test: Test B flooded paddy test; conditions: Flood, 250 g ai/ha; 0 to 100 scale where 0 is no effect and 100 is complete control; 13 to 15 d
Method in brief: as §2

[21] = preemergence, 0 to 100 scale (0 no effect, 100 complete control)
[22] = postemergence, 0 to 100 scale, 0 no effect, 100 complete control
[23] = Preemergence, visual injury after approximately 10 d, 0 to 100 scale where 0 is no effect and 100 is complete control
[24] = Postemergence, 0 to 100 scale where 0 is no effect and 100 is complete control

| SMILES | Kochia plant response rating (0 to 100 scale, 0 is no effect, 100 is complete control) ([1]; Preemergence) | Barnyardgrass plant response rating (0 to 100 scale, 0 is no effect, 100 is complete control) ([2]; Preemergence) | Foxtail, Giant plant response rating (0 to 100 scale, 0 is no effect, 100 is complete control) ([3]; Preemergence) | Plant response rating, Pigweed [4] | Pigweed plant response rating (0 to 100 scale, 0 is no effect, 100 is complete control) [4] | Plant response rating, Ragweed [5] | Ragweed plant response rating (0 to 100 scale, 0 is no effect, 100 is complete control) [5] | Plant response rating, Ryegrass, Italian [6] | Ryegrass, Italian plant response rating (0 to 100 scale, 0 is no effect, 100 is complete control) [6] | Galium plant response rating [7] | Plant response rating, Galium [7] | Kochia plant response rating [8] | Plant response rating, Kochia [8] | Barnyardgrass plant response rating ([9]; postemergence) | Blackgrass plant response rating ([10]; postemergence) | Corn plant response rating ([11]; postemergence) | Foxtail, Giant plant response rating [12] | Plant response rating, Foxtail, Giant [12] | Pigweed plant response rating [13] | Plant response rating, Pigweed [13] | further results |
| --- | --- | --- | --- | --- | --- | --- | --- | --- | --- | --- | --- | --- | --- | --- | --- | --- | --- | --- | --- | --- | --- |
| C=C(C)CN1CC(c2cccc(C(F)(F)F)c2)C(C(=O)Nc2cccc(F)c2F)C1=O (stereo not drawn) [Compound 479] | 0 | 30 | 90 | 0 | 0 | 0 | 0 | 0 | 0 | 0 | 0 | 0 | 0 | 0 | 0 | 0 | 0 | 60 | 0 | 0 | Plant response rating, Kochia [1, 21]: 0; Plant response rating, Barnyardgrass [2, 21]: 0; Plant response rating, Foxtail, Giant [3, 21]: 80; Plant response rating, Barnyardgrass [9, 22]: 50; Plant response rating, Blackgrass [10, 22]: 40; Plant response rating, Corn [11, 22]: 0; Ragweed plant response rating [14]: 0; Plant response rating, Ragweed [14]: 0; Ryegrass, Italian plant response rating [15]: 0; Plant response rating, Ryegrass, Italian [15]: 0; Wheat plant response rating [16]: 0; Plant response rating, Wheat [16]: 40; Plant response rating, Barnyardgrass [17]: 0; Plant response rating, Ducksalad [18]: 20; Plant response rating, Rice [19]: 0; Plant response rating, Sedge, Umbrella [20]: 0 |
| C=C(C)CN1CC(c2cccc(C(F)(F)F)c2)C(C(=O)Nc2ccccc2F)C1=O (stereo not drawn) [Compound 481] | 0 | 10 | 90 | 0 | 0 | 0 | 0 | 0 | 0 | 0 | 0 | 0 | 0 | 0 | 0 | 0 | 0 | 20 | 0 | 0 | Plant response rating, Kochia [1, 23]: 0; Plant response rating, Barnyardgrass [2, 23]: 0; Plant response rating, Foxtail, Giant [3, 23]: 50; Plant response rating, Barnyardgrass [9, 24]: 20; Plant response rating, Blackgrass [10, 24]: 0; Plant response rating, Corn [11, 24]: 0; Ragweed plant response rating [14]: 0; Plant response rating, Ragweed [14]: 0; Ryegrass, Italian plant response rating [15]: 0; Plant response rating, Ryegrass, Italian [15]: 0; Wheat plant response rating [16]: 0; Plant response rating, Wheat [16]: 20; Plant response rating, Barnyardgrass [17]: 0; Plant response rating, Ducksalad [18]: 0; Plant response rating, Rice [19]: 0; Plant response rating, Sedge, Umbrella [20]: 0 |
| C=C(Cl)CN1CC(c2cccc(C(F)(F)F)c2)C(C(=O)Nc2ccccc2F)C1=O (stereo not drawn) [Compound 482] | 0 | 10 | 80 | 0 | 0 | 0 | 0 | 0 | 0 | 0 | 0 | 0 | 0 | 0 | 0 | 0 | 0 | 20 | 0 | 0 | Plant response rating, Kochia [1, 23]: 0; Plant response rating, Barnyardgrass [2, 23]: 0; Plant response rating, Foxtail, Giant [3, 23]: 70; Plant response rating, Barnyardgrass [9, 24]: 20; Plant response rating, Blackgrass [10, 24]: 0; Plant response rating, Corn [11, 24]: 0; Ragweed plant response rating [14]: 0; Plant response rating, Ragweed [14]: 0; Ryegrass, Italian plant response rating [15]: 0; Plant response rating, Ryegrass, Italian [15]: 0; Wheat plant response rating [16]: 0; Plant response rating, Wheat [16]: 0; Plant response rating, Barnyardgrass [17]: 0; Plant response rating, Ducksalad [18]: 0; Plant response rating, Rice [19]: 0; Plant response rating, Sedge, Umbrella [20]: 0 |
| O=C(Nc1ccccc1F)C1C(=O)N(CC=CCl)CC1c1cccc(C(F)(F)F)c1 (stereo not drawn) [Compound 483] | 0 | 70 | 90 | 0 | 0 | 0 | 0 | 0 | 30 | 0 | 0 | 0 | 20 | 20 | 0 | 0 | 20 | 70 | 0 | 0 | Plant response rating, Kochia [1, 23]: 0; Plant response rating, Barnyardgrass [2, 23]: 0; Plant response rating, Foxtail, Giant [3, 23]: 70; Plant response rating, Barnyardgrass [9, 24]: 60; Plant response rating, Blackgrass [10, 24]: 0; Plant response rating, Corn [11, 24]: 0; Ragweed plant response rating [14]: 0; Plant response rating, Ragweed [14]: 0; Ryegrass, Italian plant response rating [15]: 0; Plant response rating, Ryegrass, Italian [15]: 0; Wheat plant response rating [16]: 0; Plant response rating, Wheat [16]: 0; Plant response rating, Barnyardgrass [17]: 0; Plant response rating, Ducksalad [18]: 30; Plant response rating, Rice [19]: 0; Plant response rating, Sedge, Umbrella [20]: 0 |
| O=C(Nc1ccccc1F)C1C(=O)N(CC=CBr)CC1c1cccc(C(F)(F)F)c1 (stereo not drawn) [Compound 484] | 0 | 40 | 90 | 0 | 0 | 0 | 0 | 0 | 0 | 0 | 0 | 0 | 0 | 0 | 0 | 0 | 0 | 40 | 0 | 0 | Plant response rating, Kochia [1, 23]: 0; Plant response rating, Barnyardgrass [2, 23]: 0; Plant response rating, Foxtail, Giant [3, 23]: 50; Plant response rating, Barnyardgrass [9, 24]: 50; Plant response rating, Blackgrass [10, 24]: 0; Plant response rating, Corn [11, 24]: 0; Ragweed plant response rating [14]: 0; Plant response rating, Ragweed [14]: 0; Ryegrass, Italian plant response rating [15]: 0; Plant response rating, Ryegrass, Italian [15]: 0; Wheat plant response rating [16]: 0; Plant response rating, Wheat [16]: 0; Plant response rating, Barnyardgrass [17]: 0; Plant response rating, Ducksalad [18]: 0; Plant response rating, Rice [19]: 0; Plant response rating, Sedge, Umbrella [20]: 0 |
